Two molecules from US11167059B2, “Compositions with reactive ingredients, and wound dressings, apparatuses, and methods” (KCI Licensing, Inc., priority 2010, dated 2021) can be followed below.

Data set [1] can be described thus: compatibility of suspension agents with Ca(OCl)2 (OCl− concentration by UV-Vis). In kind it is physicochemical. The settings on record: about 13 mg Ca(OCl)2 in methylene chloride solution of agent, about one hour in the dark. Here is the method:
FIG. 6B depicts a chart illustrating the correlation of hypochlorite concentration from the UV absorbance of FIG. 6A with corresponding concentrations obtained by Iodine titration. FIG. 6C depicts a chart of OCl^− concentration in solutions with certain of the present suspension agents, including a control of only Ca(OCl)2 in solution (of methylene chloride), Ca(OCl)2 in PCL-1 solution having 0.5 g of PCL per 100 mL of methylene chloride; Ca(OCl)2 in PCL-2 solution having 1.0 g of PCL per 100 mL of methylene chloride; and Ca(OCl)2 in solution with TWEEN 80 (also known as polysorbate 80) having 0.1 g of TWEEN 80 per 10 g of methylene chloride. […] For each solution, approximately 13 mg of Ca(OCl)2 was added to each methylene chloride solution and the solution was placed in the dark for a period of about one hour. Then 5 mL of distilled water was added to each solution, and each was shaken to mix its respective ingredients. […] After settling, for each solution, one milliliter of the aqueous layer was removed and mixed with 10 mL of 0.1 N NaOH (e.g., to increase the pH to ensure all hypochlorous acid is converted to hypochlorite for complete capture of active chlorine), and evaluated with UV-Vis spectroscopy to determine the concentration of OCl (e.g., to determine whether the OCl— had degraded or been consumed by the polymer).

Data set [2] deals with Methicillin-resistant Staphylococcus aureus (MRSA). The experiment in a line: inhibition zone on MRSA monolayer in petri dish. The settings on record: 30 μg control dose, 18 hours at 37° C. The format is cell-based. Here is the method: Experiments were performed for some of the present reactive agents (and/or resulting solutions) to investigate their antibacterial properties. In a first experiment, an even monolayer of Methicillin-resistant Staphylococcus aureus (MRSA) bacteria was spread across the surface of each of several petri dishes, and either a 30 μg control dose of Vancomycin, or an 8 mm×5 mm piece of sponge was placed on each petri dish. The pieces of sponge included: a piece of polyurethane foam coated with a silver (Ag), a piece of dry silicone foam, a piece of silicone foam impregnated with a Polyhexanide solution, a piece of silicone foam deposited with Ca(ClO)2 salt, and a piece of silicone foam deposited with NaClO salt. After placement of the pieces of foam, saline was dropped onto the foams deposited with Ca(ClO)2 and NaClO salts, respectively, Each petri dish was incubated for eighteen (18) hours at 37° C., and the clear area in which the bacteria had been killed (inhibition zone) was measured. […] In a second, similar experiment, the monolayer of bacteria was E. Coli instead of MRSA, and the remainder of the second experiment was substantially the same as the first. The results of the second experiment were also similar. […] From these preliminary experiments, the inventors believe the present reactive agents and the resulting solutions to have effective antimicrobial properties. […]

In the case of polysorbate 80 [TWEEN 80], the “compatibility of suspension agent with Ca(OCl)2” value in data set [1] is recorded as “compatible with Ca(OCl)2”.

In data set [2], `CN[C@H](CC(C)C)C(=O)N[C@H]1C(=O)N[C@@H](CC(N)=O)C(=O)N[C@H]2C(=O)N[C@H]3C(=O)N[C@H](C(=O)N[C@H](C(=O)O)c4cc(O)cc(O)c4-c4cc3ccc4O)[C@H](O)c3ccc(c(Cl)c3)Oc3cc2cc(c3O[C@@H]2O[C@H](CO)[C@@H](O)[C@H](O)[C@H]2O[C@H]2C[C@](C)(N)[C@H](O)[C@H](C)O2)Oc2ccc(cc2Cl)[C@H]1O` [Vancomycin] came in with an inhibition zone of 200 mm^2.
